# Reference: patent US20110144206A1, “USE OF A COX-2 INHIBITOR FOR THE TREATMENT OF A COX-2 DEPENDENT DISORDER IN A PATIENT NOT CARRYING HLA ALLELES ASSOCIATED WITH HEPATOTOXICITY” (priority 2008, published 2011)
# Columns and labels:
# [1] = Liver enzyme (ALT/AST) elevation rates in TARGET study; format: in vivo, human
# Method: Affected patients and matched controls are identified from a large 52-week international, multicenter, stratified, randomized, double-blind, double-dummy, parallel group clinical study. Most patients are administered one 400 mg dose of lumiracoxib each day. Patients are identified as affected cases based upon clinical measurements of elevated liver enzymes greater than or equal to 3 times ULN following administration of lumiracoxib. Patients are identified as control cases based upon clinical measurements of elevated liver enzymes less than 3 times ULN following administration of lumiracoxib, and control patients are matched to affected cases based upon clinical trial, country (where possible), sex, race and age (within 2 years, where possible). A total of 137 cases and 577 matched controls are used for analysis.
# Kaplan-Meier incidence estimates are calculated for the DQA1*0102 carriers and non-carriers for >3xULN (FIG. 4) and >5xULN (FIG. 5) ALT/AST elevations.
# [2] = cited from earlier work
# [3] = TARGET, crude rate, whole treatment group
# [4] = TARGET, crude rate, whole treatment group (Hy's law cases)
# [5] = TARGET, patients with DNA and excluding DQA1*0102 patients, N ~3538 estimated
SMILES,"ALT/AST >3x ULN [1, 3]","ALT/AST >5x ULN [1, 3]","ALT/AST >8x ULN [1, 3]","ALT/AST >3x ULN + bilirubin ≧2xULN [1, 4]","Hy's law cases ([1]; TARGET, per treatment arm)",retention in inflamed tissues ([2]; inflamed tissues),time to maximum plasma concentrations after dosing ([2]; oral),elimination half-life from plasma ([2]; plasma),Kaplan-Meier incidence estimates of >3xULN and >5xULN ALT/AST elevations ([1]; DQA1*0102 carriers),Kaplan-Meier incidence estimates of >3xULN and >5xULN ALT/AST elevations ([1]; DQA1*0102 non-carriers),"Hy's law cases ([1]; TARGET, DQA1*0102-negative patients in the lumiracoxib arm)","ULN ALT/AST rates compared to the lumiracoxib arm ([1]; TARGET, lumiracoxib DQA1*0102-negative patients)","ALT/AST >3x ULN [1, 5]","ALT/AST >3x ULN + bilirubin ≧2xULN [1, 5]","ALT/AST >5x ULN [1, 5]","ALT/AST >8x ULN [1, 5]"
CC(C)Cc1ccc(C(C)C(=O)O)cc1 (centres unmarked) [Ibuprofen],35 (0.8) n (%),13 (0.3) n (%),4 (0.1) n (%),2 (0.05) n (%),2 cases,–,–,–,–,–,–,–,–,–,–,–
"Cc1ccc(Nc2c(F)cccc2Cl)c(CC(=O)O)c1 [Lumiracoxib, 2-[(2-chloro-6-fluorophenyl)amino]-5-methyl-benzeneacetic acid]",236 (2.6) n (%),113 (1.3) n (%),56 (0.62) n (%),9 (0.10) n (%),Nine,up to 24 hours,two,four,dramatic increase in the incidence after week 13,do not show a sharp increase after week 13,no cases,reduced considerably and are comparable to the other NSAIDs,36 (1.0) n (%),0 (0) n (%),10 (0.3) n (%),3 (0.1) n (%)
COc1ccc2cc([C@H](C)C(=O)O)ccc2c1 [Naproxen],21 (0.5) n (%),6 (0.1) n (%),3 (0.1) n (%),2 (0.04) n (%),2 cases,–,–,–,–,–,–,–,–,–,–,–
